Results: patent US7396655B2, “Method for enhancing activity of luciferase with fluorescence activity” (Chisso Corporation, priority 2005, dated 2008)
Entries after “also recorded” stand apart in the source; their conditions may differ. Where two headings read alike, the source gives them in different places.

How the values were obtained:
[1] = molecular target: T1, BFP-aq, luciferase with fluorescence activity derived from aequorin (recombinant apoaequorin, SEQ ID NO: 1 with N-terminal Val replaced by Ala-Asn-Ser); complex (Aequorea victoria, UniProt P02592); assay: Light-emitting reaction rate of BFP-aq, Lineweaver-Burk plot (Table 6); type: biochemical; details: with or without 150 mM imidazole
T1 construct: The recombinant apoaequorins encoded by piP-HE is composed of 191 amino acids, whose N-terminus starts from Ala-Asn-Ser-; made in house; host or cells: E. coli strain WA802 (expression vector piP-HE)
T1 sequence (P02592 with tags, fused parts or gaps): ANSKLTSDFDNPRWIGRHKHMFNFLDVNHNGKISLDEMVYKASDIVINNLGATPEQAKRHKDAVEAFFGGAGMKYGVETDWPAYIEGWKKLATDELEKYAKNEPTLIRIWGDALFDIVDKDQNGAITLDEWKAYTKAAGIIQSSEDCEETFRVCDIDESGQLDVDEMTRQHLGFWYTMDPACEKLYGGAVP

BFP-aq [2] = molecular target: T2, BFP-aq (Aequorea victoria, UniProt P07164); details: with vs without 150 mM imidazole
Protocol: Then, luminescence activity was measured with the luminometer Luminescencer-PSN AB2200 (manufactured by Atto Co., Ltd.) for 60 seconds. Using the luminescence activity for the first 3 sec of the light-emitting reaction as the initial reaction rate, Km values were determined by the Lineweaver-Burk plot method.

[3] = molecular target: T3, Renilla reniformis luciferase (recombinant, N-terminal histidine tag) (Renilla reniformis, UniProt P27652); assay: Effect of imidazole on Renilla reniformis luciferase luminescence (control, FIG. 5); type: biochemical; details: increasing concentrations of imidazole (0.1 to 1000 mM), pH 8.0, coelenterazine substrate
T3 sequence (P27652 1-311): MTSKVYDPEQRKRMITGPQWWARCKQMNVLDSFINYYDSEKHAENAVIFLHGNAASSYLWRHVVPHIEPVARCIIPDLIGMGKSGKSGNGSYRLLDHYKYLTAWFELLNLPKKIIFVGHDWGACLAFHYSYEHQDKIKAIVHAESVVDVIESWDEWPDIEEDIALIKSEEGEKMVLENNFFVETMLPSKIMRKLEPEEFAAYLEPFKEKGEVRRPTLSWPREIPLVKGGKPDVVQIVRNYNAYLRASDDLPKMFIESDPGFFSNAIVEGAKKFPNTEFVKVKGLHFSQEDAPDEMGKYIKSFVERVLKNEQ
Protocol: (§1) 50 mM Tris-HCl (pH 8.0) containing imidazole at various concentrations (0. 1, 0.3, 1, 3, 10, 30, 60, 100, 150, 200, 250, 300, 400, 500, 600, 700, 800, 900, and 1000 mM) was prepared and pre-warmed at 25° C. The substrate coelenterazine (1 μg) was added to each imidazole-containing solution (200 μl).
(§2) As a control experiment, the same experiment was conducted using Renilla reniformis luciferase, which contains coelenterazine as luminescent substrate.

BFP-aq [4] = molecular target: T2, BFP-aq; assay: biochemical; type: biochemical; parameters: The recombinant apoaequorins encoded by piP-HE is composed of 191 amino acids, whose N-terminus starts from Ala-Asn-Ser-; made in house; host or cells: E. coli strain WA802
Protocol: Solutions of 50 mM Tris-HCl (pH 8.0), each containing various commercial organic compounds shown in Table 3, were prepared and pre-warmed at 25° C. The substrate coelenterazine (1 μg) was added to the solutions (200 μl) containing each of these compounds.

[5] = molecular target: T4, Renilla reniformis luciferase (Renilla reniformis, UniProt P27652); assay: Control experiment: Renilla reniformis luciferase luminescence with imidazole; type: biochemical; details: increasing concentrations of imidazole
T4 construct: histidine tag (N); made in house; host or cells: E. coli Top10
T4 sequence (P27652 1-311): T3 sequence (P27652 1-311)
Protocol: Renilla reniformis luciferase, a monomeric luciferase (36 kDa) derived from Renilla reniformis, catalyzes oxidation of the substrate coelenterazine to trigger light emission.
50 mM Tris-HCl buffer (200 μl), pH 7.6, was pre-warmed at 25° C., to which the substrate coelenterazine (1 μg/μl) dissolved in ethanol was added. A light-emitting reaction was triggered by adding Renilla reniformis luciferase (1.2 μg). […] The measured values were represented as the maximum intensity (Imax) of luminescence activity.
As a control experiment, the same experiment was conducted using Renilla reniformis luciferase, which contains coelenterazine as luminescent substrate. […] That is, it was shown that the enhancing effect on luminescence activity by the addition of imidazole is specific for BFP-aq.

[6] = molecular target: T1, BFP-aq, luciferase with fluorescence activity derived from aequorin (recombinant apoaequorin, SEQ ID NO: 1 with N-terminal Val replaced by Ala-Asn-Ser); complex; assay: Optimal imidazole concentration for enhancing BFP-aq luminescence (FIG. 5); type: biochemical; details: pH 8.0, 25° C., coelenterazine substrate; compared with no imidazole
Protocol: as §1, with “μl). […] Assuming that the maximum intensity activity (Imax) of BFP-aq luminescence activity in 50 mM Tris-HCl (pH 8.0) is 100%, the relative luminescence activity values are shown in FIG. 5.” for “μl).”

BFP-aq [7] = molecular target: T2, BFP-aq; type: biochemical; parameters: The recombinant apoaequorins encoded by piP-HE is composed of 191 amino acids, whose N-terminus starts from Ala-Asn-Ser-; made in house; host or cells: E. coli strain WA802; details: pH 8.0
Protocol: as §1, §2

[8] = molecular target: T1, BFP-aq, luciferase with fluorescence activity derived from aequorin (recombinant apoaequorin, SEQ ID NO: 1 with N-terminal Val replaced by Ala-Asn-Ser); complex; assay: Luminescence of BFP-aq with coelenterazine and analogs, with/without imidazole (Table 5); type: biochemical; details: without imidazole; pH 8.0; coelenterazine without imidazole = 100%
Protocol: 200 μl of this solution was placed in five vessels, to each of which 1 μg of the substrate coelenterazine (CTZ) and its four analogs: h-CTZ, cp-CTZ, hcp-CTZ, f-CTZ were added. […] Assuming that the maximum intensity activity (Imax) and initial velocity of BFP-aq luminescence activity in 50 mM Tris-HCl (pH 8.0) was 100%, the effect of the addition of imidazole on luminescence activity was examined.

[9] = pH 8, read-out: Luminescence activity (%) Imax
[10] = pH 8, read-out: Luminescence activity (%) Initial velocity

| SMILES | Km change with imidazole, in words [1] | Vmax change with imidazole, in words [1] | Change of Km values (BFP-aq [2]) | Change of Vmax (BFP-aq [2]) | Luminescence activity of Renilla reniformis luciferase with imidazole, in words [3] | activity at 30000 µM (BFP-aq [4]; [9]) [%] | activity at 150000 µM (BFP-aq [4]; [9]) [%] | activity at 30000 µM (BFP-aq [4]; [10]) [%] | activity at 150000 µM (BFP-aq [4]; [10]) [%] | Enhancement of BFP-aq luminescence activity (Imax), in words (BFP-aq [4]; pH 8.0, Table 4 comparison) | Effect on luminescence activity of Renilla reniformis luciferase [5] | Luminescence activity of BFP-aq with imidazole, in words [6] | Luminescence activity compared with the system without imidazole (BFP-aq [7]; 150 mM imidazole) | Effect on luminescence activity of BFP-aq (BFP-aq [7]; 30 to 250 mM imidazole) | Relative luminescence activity, Imax [8] [%] |
| --- | --- | --- | --- | --- | --- | --- | --- | --- | --- | --- | --- | --- | --- | --- | --- |
| c1c[nH]cn1 [Imidazole] | no marked changes were found in the Km values | only Vmax was doubled in the system with imidazole | no marked changes | doubled | remarkably inhibited with increasing concentrations of imidazole | 148 | 199 | 153 | 205 | marked luminescence activity (Imax) occurs only when 150 mM imidazole was added | remarkably inhibited | enhanced at 30 to 250 mM imidazole; also recorded: more than two-fold of the luminescence activity | more than two-fold | enhanced |  |
| O=c1c(Cc2ccc(O)cc2)nc2c(CC3CCCC3)[nH]c(-c3ccc(O)cc3)cn1-2 [cp-Coelenterazine, cp-coelenterazine] |  |  |  |  |  |  |  |  |  |  |  |  |  |  | 54 |
